Source: ChEMBL document CHEMBL1255477, “In vitro properties of BAL30072, a novel siderophore sulfactam with activity against multiresistant gram-negative bacilli” (Antimicrob Agents Chemother, 2010)

Experiments:
[1] = system: Pseudomonas aeruginosa; assay: Antimicrobial activity against mexAB-oprM protein and mexZ deficient Pseudomonas aeruginosa PAO267 by broth dilution method; type: functional
[2] = system: Acinetobacter sp.; assay: Antimicrobial activity against Acinetobacter sp. by broth dilution method; type: functional
[3] = system: Pseudomonas aeruginosa; assay: Antimicrobial activity against mexAB-oprM, mexCD-oprJ, mexEF-oprN, mexJK, mexXY, opmH and pscC gene deficient Pseudomonas aeruginosa PAO750 by broth dilution method; type: functional
[4] = system: Pseudomonas aeruginosa; assay: Antimicrobial activity against mexAB-oprM protein and mexCD-oprJ deficient Pseudomonas aeruginosa PAO238 by broth dilution method; type: functional
[5] = system: Pseudomonas aeruginosa; details: PAO1
Description: Antimicrobial activity against Pseudomonas aeruginosa PAO1 by broth dilution method

[6] = system: Pseudomonas aeruginosa; assay: Antimicrobial activity against oprD protein deficient Pseudomonas aeruginosa C2 by broth dilution method; type: functional
[7] = system: Pseudomonas aeruginosa; assay: Antimicrobial activity against Pseudomonas aeruginosa BA by broth dilution method; type: functional
[8] = system: Pseudomonas aeruginosa; assay: Antimicrobial activity against mexAB-oprM protein and mexCD-oprJ deficient Pseudomonas aeruginosa PAO253 overexpressing MexEF-OprN gene by broth dilution method; type: functional
[9] = system: Pseudomonas aeruginosa; assay: Antimicrobial activity against Pseudomonas aeruginosa B4 by broth dilution method; type: functional
[10] = system: Pseudomonas aeruginosa; assay: Antimicrobial activity against Pseudomonas aeruginosa BA(C2-107) selected after 25 ug/ml of compound exposure by broth dilution method; type: functional
[11] = system: Pseudomonas aeruginosa; assay: Antimicrobial activity against Pseudomonas aeruginosa BA(C1-106) selected after 25 ug/ml of compound exposure by broth dilution method; type: functional
[12] = system: Pseudomonas aeruginosa; assay: Antimicrobial activity against Pseudomonas aeruginosa by broth dilution method; type: functional
[13] = substrate: CC1(C)[C@H](NC(=O)/C(=N\OCc2cc(=O)c(O)cn2O)c2csc(N)n2)C(=O)N1OS(=O)(=O)O; details: Escherichia coli; ATCC 25922
Description: (§1) Binding affinity to Escherichia coli ATCC 25922 AmpC

[14] = substrate: C[C@H]1[C@H](NC(=O)/C(=N\OC(C)(C)C(=O)O)c2csc(N)n2)C(=O)N1S(=O)(=O)O; details: Escherichia coli; ATCC 25922
Description: as §1

[15] = substrate: CC1(C)[C@H](NC(=O)/C(=N\OCc2cc(=O)c(O)cn2O)c2csc(N)n2)C(=O)N1OS(=O)(=O)O; details: Escherichia coli; ATCC 25922; remark: listed apart in the source
Description: (§2) Ratio of Kcat to Km for Escherichia coli ATCC 25922 AmpC

[16] = substrate: C[C@H]1[C@H](NC(=O)/C(=N\OC(C)(C)C(=O)O)c2csc(N)n2)C(=O)N1S(=O)(=O)O; details: Escherichia coli; ATCC 25922; remark: listed apart in the source
Description: as §2

| Molecule | MIC [1] [µg/mL] | MIC50 [2] [µg/mL] | MIC90 [2] [µg/mL] | MIC [3] [µg/mL] | MIC [4] [µg/mL] | MIC [5] [µg/mL] | MIC [6] [µg/mL] | MIC [7] [µg/mL] | MIC [8] [µg/mL] | MIC [9] [µg/mL] | MIC [10] [µg/mL] | MIC [11] [µg/mL] | MIC50 [12] [µg/mL] | MIC90 [12] [µg/mL] | Km [13] [µM] | kcat [13] [s⁻¹] | Km [14] [µM] | kcat [14] [s⁻¹] | kcat/Km [15] [M⁻¹ s⁻¹] | kcat/Km [16] [M⁻¹ s⁻¹] |
| --- | --- | --- | --- | --- | --- | --- | --- | --- | --- | --- | --- | --- | --- | --- | --- | --- | --- | --- | --- | --- |
| POLYMYXIN B | 8 | 4 | 32 | 8 | 8 | 8 | 4 | 4 | 4 | 2 | 4 | 2 | 4 | 8 |  |  |  |  |  |  |
| MFKTTLCALLITASCSTFAA [AmpC (Escherichia coli), Q83TT7] |  |  |  |  |  |  |  |  |  |  |  |  |  |  | 100 | 0.004 | 21 | 6e-05 | 38 | 2.9 |
